The experiment deals with T1, GID4 (Uniprot ID: Q81VV7, residues 124-289) (Homo sapiens, UniProt Q8IVV7).
T1 construct: GID4 (Uniprot ID: Q81VV7, residues 124-289)
T1 sequence (Q8IVV7 124-289): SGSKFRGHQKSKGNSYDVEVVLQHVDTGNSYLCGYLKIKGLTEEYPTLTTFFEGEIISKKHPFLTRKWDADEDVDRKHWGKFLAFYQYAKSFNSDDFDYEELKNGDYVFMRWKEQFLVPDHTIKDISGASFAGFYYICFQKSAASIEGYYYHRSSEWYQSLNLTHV
The experiment can be described thus: GID4 competitive binding assay (AlphaScreen, GID4/degron peptide PGLW). Particulars: 24 nM GID4, 48 nM biotinylated degron peptide PGLW, 4° C., read-out: IC50 (Inhibition of GID4/Degron binding by test compounds). In a few lines: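 His-tagged human GID4 (residues 124-289, 24 nM) pre-incubated 2 h at 4 °C with 48 nM biotinylated PGLW peptide and compound in HEPES pH 7.5 buffer, 2% DMSO (final). AlphaScreen streptavidin donor/Ni-NTA acceptor beads added for 1 h; IC50 from nonlinear fit of % inhibition versus DMSO.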
(In general: Bead proximity is the source of the signal in Alpha formats.)
With `CC(C)c1cc(N2CCCC(c3nc4ccccc4[nH]3)C2)nc(N)n1` (centres unmarked) [Compound 181, 4-(3-(1H-benzo[d]imidazol-2-yl)piperidin-1-yl)-6-isopropylpyrimidin-2-amine], the IC50 was over 5000 nM.
Under `Nc1nc(NC2CC2)nc(N2CCOC(c3ccccc3Br)C2)n1` (centres unmarked) [Compound 61, 6-(2-(2-bromophenyl)morpholino)-N2-cyclopropyl-1,3,5-triazine-2,4-diamine] stands 500 to 5000 nM.
Under `CNc1cc(N2CCN[C@H](c3ccccc3Br)C2)nc(NC)n1` (stereo in doubt) [Compound 131, (R/S)-6-(3-(2-bromophenyl)piperazin-1-yl)-N2,N4-dimethylpyrimidine-2,4-diamine] stands under 500 nM.
Under `CN(C)CCCNC(=O)c1ccc(-c2cc(O)c3ncccc3c2)cc1N` [Compound 312, 2-amino-N-(3-(dimethylamino)propyl)-4-(8-hydroxyquinolin-6-yl)benzamide] stands under 500 nM; under `Nc1nc(C2CC2)cc(N2CCN[C@H](c3ccccc3Br)C2)n1` (stereo in doubt) [Compound 132, (R/S)-4-(3-(2-bromophenyl)piperazin-1-yl)-6-cyclopropylpyrimidin-2-amine], 500 to 5000 nM.
For `CN(C)CCCNC(=O)c1cnc(-c2cc(O)c3ncccc3c2)s1` [Compound 274, N-(3-(dimethylamino)propyl)-2-(8-hydroxyquinolin-6-yl)thiazole-5-carboxamide], the IC50 is under 500 nM.
Under `CN1CCC(CNC(=O)c2ccc(-c3cc(O)c4ncccc4c3)cc2)C1` (centres unmarked) [Compound 292, 4-(8-hydroxyquinolin-6-yl)-N-((1-methylpyrrolidin-3-yl)methyl)benzamide] stands under 500 nM; under `Nc1nc2c(c(N3CCCC(c4ccn[nH]4)C3)n1)CCC2` (centres unmarked) [Compound 195, 4-(3-(1H-pyrazol-5-yl)piperidin-1-yl)-6,7-dihydro-5H-cyclopenta[d]pyrimidin-2-amine], over 5000 nM; under `CC(C)c1cc(N2CC[C@H](O)[C@@H](c3ccccc3Br)C2)nc(N)n1` (relative stereo) [Compound 223, (3,4-trans)-1-(2-amino-6-isopropylpyrimidin-4-yl)-3-(2-bromophenyl)piperidin-4-ol], 500 to 5000 nM.
Under `Nc1cc(N2CCCC(c3n[nH]c4ccccc34)C2)nc(N)n1` (centres unmarked) [Compound 246, 6-(3-(1H-indazol-3-yl)piperidin-1-yl)pyrimidine-2,4-diamine] stands 500 to 5000 nM; under `Nc1nccc2ccc(-c3ccc4[nH]cnc4c3)cc12` [Compound 362, 7-(1H-benzo[d]imidazol-5-yl)isoquinolin-1-amine], 500 to 5000 nM.
Under `Nc1nccc2ccc(-c3ccc4[nH]nc(C(=O)N5CCC(O)CC5)c4c3)cc12` [Compound 336, (5-(1-aminoisoquinolin-7-yl)-1H-indazol-3-yl)(4-hydroxypiperidin-1-yl)methanone] stands under 500 nM; under `CNc1cc(N2CCCC(n3nc4ccccc4n3)C2)nc(N)n1` (centres unmarked) [Compound 259, 6-(3-(2H-benzo[d][1,2,3]triazol-2-yl)piperidin-1-yl)-N4-methylpyrimidine-2,4-diamine], over 5000 nM; under `CN1CCCC(CNC(=O)c2ccc(-c3cc(O)c4ncccc4c3)cc2)C1` (centres unmarked) [Compound 290, 4-(8-hydroxyquinolin-6-yl)-N-((1-methylpiperidin-3-yl)methyl)benzamide], under 500 nM.
For the compound `CC(C)c1cc(N2CCCC(c3cnc4ccccn34)C2)nc(NCCO)n1` (centres unmarked) [Compound 127, 2-((4-(3-(imidazo[1,2-a]pyridin-3-yl)piperidin-1-yl)-6-isopropylpyrimidin-2-yl)amino)ethan-1-ol], the IC50 was over 5000 nM.
For the compound `Oc1cc(C2=CCNCC2)cc2cccnc12` [Compound 324, 6-(1,2,3,6-tetrahydropyridin-4-yl)quinolin-8-ol], the IC50 is 500 to 5000 nM.
Under `CCOc1ccc(Br)c(C2CN(c3cc(N)nc(N)n3)CCN2)c1` (single isomer, unassigned) [Compound 24, (S/R)-6-(3-(2-bromo-5-ethoxyphenyl)piperazin-1-yl)pyrimidine-2,4-diamine] stands under 500 nM.

Source of the values: patent US20240132464A1, “HETEROCYCLIC COMPOUNDS AS E3 LIGASE INHIBITORS” (Accutar Biotechnology Inc., priority 2022, published 2024).
